Measurements reported in ChEMBL document CHEMBL4321812, “Structure-based rational design of staurosporine-based fluorescent probe with broad-ranging kinase affinity for kinase panel application” (Bioorg Med Chem Lett, 2019).

Tests used:
[1] = target: Proto-oncogene tyrosine-protein kinase Src (Homo sapiens, UniProt P12931); test: Binding affinity to recombinant full-length N-terminal His-FLAG-GST-tagged SRC (unknown origin) expressed in baculovirus infected Sf9 insect cells incubated for 1 hr by TR-FRET assay
[2] = target: BMP-2-inducible protein kinase (Homo sapiens, UniProt Q9NSY1); test: Binding affinity to recombinant full-length N-terminal His-FLAG-GST-tagged BMP2K (unknown origin) expressed in baculovirus infected Sf9 insect cells incubated for 1 hr by TR-FRET assay
Sequence of BMP-2-inducible protein kinase (Q9NSY1 whole entry): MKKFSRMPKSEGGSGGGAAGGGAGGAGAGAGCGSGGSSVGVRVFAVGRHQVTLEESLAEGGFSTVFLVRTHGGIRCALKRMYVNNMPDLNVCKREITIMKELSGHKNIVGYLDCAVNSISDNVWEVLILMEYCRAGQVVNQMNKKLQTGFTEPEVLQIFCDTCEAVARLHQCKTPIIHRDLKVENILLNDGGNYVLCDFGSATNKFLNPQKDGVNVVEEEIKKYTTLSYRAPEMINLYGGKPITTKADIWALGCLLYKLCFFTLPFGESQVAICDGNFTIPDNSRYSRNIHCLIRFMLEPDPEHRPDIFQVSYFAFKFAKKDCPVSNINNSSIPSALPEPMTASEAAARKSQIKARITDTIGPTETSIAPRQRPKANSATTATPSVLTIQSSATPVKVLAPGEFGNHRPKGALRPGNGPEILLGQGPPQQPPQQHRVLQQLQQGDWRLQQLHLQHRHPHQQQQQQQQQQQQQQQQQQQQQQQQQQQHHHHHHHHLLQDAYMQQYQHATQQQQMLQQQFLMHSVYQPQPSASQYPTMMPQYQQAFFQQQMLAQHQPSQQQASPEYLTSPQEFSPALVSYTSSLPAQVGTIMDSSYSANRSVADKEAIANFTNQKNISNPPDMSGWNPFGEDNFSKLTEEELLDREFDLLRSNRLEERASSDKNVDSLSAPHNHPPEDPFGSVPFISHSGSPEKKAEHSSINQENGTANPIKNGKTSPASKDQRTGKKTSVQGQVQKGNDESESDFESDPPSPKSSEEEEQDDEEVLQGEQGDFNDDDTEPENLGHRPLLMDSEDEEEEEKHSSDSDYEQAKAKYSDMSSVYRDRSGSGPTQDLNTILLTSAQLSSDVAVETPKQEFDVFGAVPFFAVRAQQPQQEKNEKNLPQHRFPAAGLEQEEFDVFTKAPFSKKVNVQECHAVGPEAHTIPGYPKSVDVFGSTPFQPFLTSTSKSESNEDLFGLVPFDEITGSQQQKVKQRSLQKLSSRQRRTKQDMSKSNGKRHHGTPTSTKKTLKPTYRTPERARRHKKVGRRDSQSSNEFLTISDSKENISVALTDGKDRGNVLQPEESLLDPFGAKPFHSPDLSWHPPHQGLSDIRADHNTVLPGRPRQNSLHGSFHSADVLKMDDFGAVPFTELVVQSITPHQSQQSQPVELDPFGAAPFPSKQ

Rhodopsin kinase GRK1 = Rhodopsin kinase GRK1 (Homo sapiens, UniProt Q15835); test: Binding affinity to recombinant full-length N-terminal His-FLAG-GST-tagged GRK1 (unknown origin) expressed in baculovirus infected Sf9 insect cells incubated for 1 hr by TR-FRET assay
[3] = target: Tyrosine-protein kinase Mer (Homo sapiens, UniProt Q12866); test: Binding affinity to recombinant full-length N-terminal His-FLAG-GST-tagged MERTK (unknown origin) (528 to 999 residues) expressed in baculovirus infected Sf9 insect cells incubated for 1 hr by TR-FRET assay
Sequence of Tyrosine-protein kinase Mer (Q12866 whole entry, the tested form may be a part): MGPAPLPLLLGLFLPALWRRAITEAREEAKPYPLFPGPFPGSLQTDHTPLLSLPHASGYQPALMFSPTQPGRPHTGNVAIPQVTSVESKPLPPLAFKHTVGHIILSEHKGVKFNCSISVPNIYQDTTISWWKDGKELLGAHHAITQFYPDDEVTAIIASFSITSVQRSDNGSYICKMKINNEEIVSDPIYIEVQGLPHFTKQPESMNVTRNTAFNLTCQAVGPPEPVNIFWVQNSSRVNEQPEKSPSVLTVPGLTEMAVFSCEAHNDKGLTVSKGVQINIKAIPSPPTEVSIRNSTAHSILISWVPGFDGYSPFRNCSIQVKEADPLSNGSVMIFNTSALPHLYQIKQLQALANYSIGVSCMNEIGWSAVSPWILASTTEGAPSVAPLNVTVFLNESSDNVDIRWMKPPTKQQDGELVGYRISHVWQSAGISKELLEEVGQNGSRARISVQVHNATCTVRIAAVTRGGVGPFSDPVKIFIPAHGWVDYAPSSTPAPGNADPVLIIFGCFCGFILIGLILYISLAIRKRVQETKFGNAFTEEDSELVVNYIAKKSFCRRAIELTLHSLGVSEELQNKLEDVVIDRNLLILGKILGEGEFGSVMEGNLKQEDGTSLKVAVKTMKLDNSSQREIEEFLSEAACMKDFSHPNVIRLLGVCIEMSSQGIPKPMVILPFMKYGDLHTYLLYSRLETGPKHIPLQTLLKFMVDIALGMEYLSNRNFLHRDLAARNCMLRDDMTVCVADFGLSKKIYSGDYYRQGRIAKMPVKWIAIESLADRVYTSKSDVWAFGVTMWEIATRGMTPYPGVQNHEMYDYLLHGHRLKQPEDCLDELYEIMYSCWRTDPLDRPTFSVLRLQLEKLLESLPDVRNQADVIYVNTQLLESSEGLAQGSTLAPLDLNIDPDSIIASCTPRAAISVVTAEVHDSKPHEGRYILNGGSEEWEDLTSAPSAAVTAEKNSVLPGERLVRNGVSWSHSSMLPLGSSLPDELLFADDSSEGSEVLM

Focal adhesion kinase 1 = Focal adhesion kinase 1 (Homo sapiens, UniProt Q05397); test: Binding affinity to recombinant human full length N-terminal GST-tagged PTK2 expressed in baculovirus expression system incubated for 1 hr by TR-FRET assay
Sequence of Focal adhesion kinase 1 (Q05397 whole entry, the tested form may be a part): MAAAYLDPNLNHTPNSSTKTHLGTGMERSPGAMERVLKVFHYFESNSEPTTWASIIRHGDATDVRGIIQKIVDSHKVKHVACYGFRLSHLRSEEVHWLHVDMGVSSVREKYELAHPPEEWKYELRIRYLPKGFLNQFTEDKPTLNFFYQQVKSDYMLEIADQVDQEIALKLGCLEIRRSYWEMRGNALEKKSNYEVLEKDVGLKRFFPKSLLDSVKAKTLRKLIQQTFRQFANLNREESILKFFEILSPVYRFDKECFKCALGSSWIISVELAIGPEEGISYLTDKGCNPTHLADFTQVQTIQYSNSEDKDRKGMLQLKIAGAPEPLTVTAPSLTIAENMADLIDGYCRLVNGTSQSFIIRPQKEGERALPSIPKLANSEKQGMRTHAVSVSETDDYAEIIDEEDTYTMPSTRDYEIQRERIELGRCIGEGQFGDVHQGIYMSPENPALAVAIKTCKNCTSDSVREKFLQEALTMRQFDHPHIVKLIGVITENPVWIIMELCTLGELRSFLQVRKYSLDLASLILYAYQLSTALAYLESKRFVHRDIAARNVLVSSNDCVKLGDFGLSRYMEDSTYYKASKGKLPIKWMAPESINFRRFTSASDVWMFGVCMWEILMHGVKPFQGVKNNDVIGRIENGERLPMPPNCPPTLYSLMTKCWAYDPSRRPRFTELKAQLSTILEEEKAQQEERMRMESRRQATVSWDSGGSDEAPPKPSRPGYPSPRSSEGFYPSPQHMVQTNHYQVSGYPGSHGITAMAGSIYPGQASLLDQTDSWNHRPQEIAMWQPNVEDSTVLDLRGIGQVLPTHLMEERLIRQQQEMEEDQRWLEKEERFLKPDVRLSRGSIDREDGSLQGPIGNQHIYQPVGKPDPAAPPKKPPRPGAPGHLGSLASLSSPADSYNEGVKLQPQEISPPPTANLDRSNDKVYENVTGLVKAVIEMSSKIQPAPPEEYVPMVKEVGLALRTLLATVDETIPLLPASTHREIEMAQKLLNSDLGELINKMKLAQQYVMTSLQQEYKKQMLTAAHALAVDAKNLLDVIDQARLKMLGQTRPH

[4] = target: Death-associated protein kinase 1 (Homo sapiens, UniProt P53355); test: Binding affinity to recombinant full-length N-terminal His-FLAG-GST-tagged DAPK1 (unknown origin) (1 to 289 residues) expressed in baculovirus infected Sf9 insect cells incubated for 1 hr by TR-FRET assay
[5] = target: Tyrosine-protein kinase Fer (Homo sapiens, UniProt P16591); test: Binding affinity to recombinant full-length N-terminal His-FLAG-GST-tagged FER (unknown origin) expressed in baculovirus infected Sf9 insect cells incubated for 1 hr by TR-FRET assay
[6] = target: Serine/threonine-protein kinase BRSK1 (Homo sapiens, UniProt Q8TDC3); test: Binding affinity to recombinant full-length N-terminal His-FLAG-GST-tagged BRSK1 (unknown origin) expressed in baculovirus infected Sf9 insect cells incubated for 1 hr by TR-FRET assay
[7] = target: Serine/threonine-protein kinase 38-like (Homo sapiens, UniProt Q9Y2H1); test: Binding affinity to recombinant full-length N-terminal His-FLAG-GST-tagged STK38L (unknown origin) expressed in baculovirus infected Sf9 insect cells incubated for 1 hr by TR-FRET assay
[8] = target: Protein kinase C epsilon type (Homo sapiens, UniProt Q02156); test: Binding affinity to recombinant human full length N-terminal GST-tagged PRKCE expressed in baculovirus expression system using PKC peptide as substrate incubated for 1 hr by TR-FRET assay
[9] = target: Maternal embryonic leucine zipper kinase (Homo sapiens, UniProt Q14680); test: Binding affinity to recombinant full-length N-terminal His-FLAG-GST-tagged MELK (unknown origin) (1 to 493 residues) expressed in baculovirus infected Sf9 insect cells incubated for 1 hr by TR-FRET assay
[10] = target: NUAK family SNF1-like kinase 2 (Homo sapiens, UniProt Q9H093); test: Binding affinity to recombinant full-length N-terminal His-FLAG-tagged NUAK2 (unknown origin) expressed in baculovirus infected Sf9 insect cells incubated for 1 hr by TR-FRET assay
Sequence of NUAK family SNF1-like kinase 2 (Q9H093 whole entry): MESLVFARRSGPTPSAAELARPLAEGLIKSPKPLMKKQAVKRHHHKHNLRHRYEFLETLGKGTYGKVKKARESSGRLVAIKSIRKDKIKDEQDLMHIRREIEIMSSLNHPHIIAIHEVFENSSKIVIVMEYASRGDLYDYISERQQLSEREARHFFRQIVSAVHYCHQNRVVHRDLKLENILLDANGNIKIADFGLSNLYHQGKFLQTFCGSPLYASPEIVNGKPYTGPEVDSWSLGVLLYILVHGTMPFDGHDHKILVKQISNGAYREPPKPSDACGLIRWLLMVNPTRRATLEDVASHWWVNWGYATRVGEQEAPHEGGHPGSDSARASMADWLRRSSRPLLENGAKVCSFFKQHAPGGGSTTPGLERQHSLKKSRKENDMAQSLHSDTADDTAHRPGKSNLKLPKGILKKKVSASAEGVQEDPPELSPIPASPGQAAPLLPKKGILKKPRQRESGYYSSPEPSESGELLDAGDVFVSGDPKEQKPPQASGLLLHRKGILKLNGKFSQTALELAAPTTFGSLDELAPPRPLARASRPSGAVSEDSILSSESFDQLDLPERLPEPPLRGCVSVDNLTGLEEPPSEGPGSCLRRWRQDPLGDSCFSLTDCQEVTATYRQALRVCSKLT

[11] = target: Glycogen synthase kinase-3 alpha (Homo sapiens, UniProt P49840); test: Binding affinity to recombinant full-length N-terminal His-GST-tagged GSK3A (unknown origin) expressed in baculovirus infected Sf9 insect cells incubated for 1 hr by TR-FRET assay
[12] = target: Calcium/calmodulin-dependent protein kinase type II subunit alpha (Homo sapiens, UniProt Q9UQM7); test: Binding affinity to recombinant human full-length N-terminal GST-tagged CAMK2A expressed in baculovirus expression system using GS peptide as substrate incubated for 1 hr in presence of calmodulin by TR-FRET assay
Sequence of Calcium/calmodulin-dependent protein kinase type II subunit alpha (Q9UQM7 whole entry, the tested form may be a part): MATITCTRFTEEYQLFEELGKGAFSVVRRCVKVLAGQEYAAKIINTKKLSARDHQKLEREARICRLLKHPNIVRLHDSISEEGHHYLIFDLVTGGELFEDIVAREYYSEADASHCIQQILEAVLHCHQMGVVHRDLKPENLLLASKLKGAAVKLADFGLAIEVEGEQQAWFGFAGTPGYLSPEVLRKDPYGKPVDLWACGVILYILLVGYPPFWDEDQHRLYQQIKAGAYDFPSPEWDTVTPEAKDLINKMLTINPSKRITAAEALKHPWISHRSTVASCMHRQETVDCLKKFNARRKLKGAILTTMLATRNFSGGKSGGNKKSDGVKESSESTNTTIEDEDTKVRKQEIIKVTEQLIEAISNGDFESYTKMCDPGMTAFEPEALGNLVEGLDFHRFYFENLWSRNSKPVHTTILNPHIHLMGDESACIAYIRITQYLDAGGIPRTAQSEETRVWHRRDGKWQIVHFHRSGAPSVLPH

Misshapen-like kinase 1 = Misshapen-like kinase 1 (Homo sapiens, UniProt Q8N4C8); test: Binding affinity to recombinant full-length N-terminal His-FLAG-GST-tagged MINK1 (unknown origin) (1 to 314 residues) expressed in baculovirus infected Sf9 insect cells incubated for 1 hr by TR-FRET assay
[13] = target: Tyrosine-protein kinase FRK (Homo sapiens, UniProt P42685); test: Binding affinity to recombinant full-length N-terminal His-FLAG-GST-tagged FRK (unknown origin) (223 to 505 residues) expressed in baculovirus infected Sf9 insect cells incubated for 1 hr […] by TR-FRET assay
[14] = target: Serine/threonine-protein kinase 3 (Homo sapiens, UniProt Q13188); test: Binding affinity to recombinant full-length N-terminal His-FLAG-GST-tagged STK3 (unknown origin) expressed in baculovirus infected Sf9 insect cells incubated for 1 hr by TR-FRET assay
Angiopoietin-1 receptor = Angiopoietin-1 receptor (Homo sapiens, UniProt Q02763); test: Binding affinity to recombinant full-length N-terminal His-FLAG-GST-tagged TEK (unknown origin) (771 to 1124 residues) expressed in baculovirus infected Sf9 insect cells incubated for 1 hr by TR-FRET assay
[15] = target: Glycogen synthase kinase-3 beta (Homo sapiens, UniProt P49841); test: Binding affinity to recombinant full-length N-terminal His-FLAG-GST-tagged GSK3B (unknown origin) expressed in baculovirus infected Sf9 insect cells incubated for 1 hr by TR-FRET assay
[16] = target: Dual specificity tyrosine-phosphorylation-regulated kinase 1A (Homo sapiens, UniProt Q13627); test: Binding affinity to recombinant full-length N-terminal His-FLAG-GST-tagged DYRK1A (unknown origin) expressed in baculovirus infected Sf9 insect cells incubated for 1 hr by TR-FRET assay
[17] = target: 5'-AMP-activated protein kinase catalytic subunit alpha-2 (Homo sapiens, UniProt P54646); test: Binding affinity to recombinant full-length N-terminal His-FLAG-GST-tagged PRKAA2 (unknown origin) (10 to 552 residues) expressed in baculovirus infected Sf9 insect cells incubated for 1 hr by TR-FRET assay
Myosin-IIIb = Myosin-IIIb (Homo sapiens, UniProt Q8WXR4); test: Binding affinity to recombinant full-length N-terminal His-FLAG-GST-tagged MYO3B (unknown origin) (1 to 362 residues) expressed in baculovirus infected Sf9 insect cells incubated for 1 hr by TR-FRET assay
[18] = target: Death-associated protein kinase 2 (Homo sapiens, UniProt Q9UIK4); test: Binding affinity to recombinant full-length N-terminal His-FLAG-GST-tagged DAPK2 (unknown origin) expressed in baculovirus infected Sf9 insect cells incubated for 1 hr by TR-FRET assay
Sequence of Death-associated protein kinase 2 (Q9UIK4 whole entry): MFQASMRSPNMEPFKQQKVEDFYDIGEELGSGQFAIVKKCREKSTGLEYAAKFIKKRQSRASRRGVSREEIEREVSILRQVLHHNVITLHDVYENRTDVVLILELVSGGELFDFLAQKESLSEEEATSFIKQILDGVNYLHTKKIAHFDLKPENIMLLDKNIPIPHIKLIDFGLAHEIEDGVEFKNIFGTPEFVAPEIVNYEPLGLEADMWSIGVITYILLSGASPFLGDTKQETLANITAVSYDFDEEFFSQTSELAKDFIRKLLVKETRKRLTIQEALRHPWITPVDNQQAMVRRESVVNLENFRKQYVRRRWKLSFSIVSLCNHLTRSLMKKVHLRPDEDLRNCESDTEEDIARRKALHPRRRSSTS

[19] = target: Mitogen-activated protein kinase 9 (Homo sapiens, UniProt P45984); test: Binding affinity to recombinant full-length N-terminal His-FLAG-tagged MAPK9 (unknown origin) expressed in baculovirus infected Sf9 insect cells incubated for 1 hr by TR-FRET assay

Row | SMILES | Kd [1] | Kd [2] | Kd (Rhodopsin kinase GRK1) | Kd [3] | Kd (Focal adhesion kinase 1) | Kd [4] | Kd [5] | Kd [6] | Kd [7] | Kd [8] | Kd [9] | Kd [10] | Kd [11] | Kd [12] | Kd (Misshapen-like kinase 1) | Kd [13] | Kd [14] | Kd (Angiopoietin-1 receptor) | Kd [15] | Kd [16] | other results
1 | CO[C@@H]1[C@H](NCCOCCOCCOCCNC(=O)CCC2=[N+]3C(=Cc4c(C)cc(C)n4[B-]3(F)F)C=C2)C[C@H]2O[C@]1(C)n1c3ccccc3c3c4c(c5c6ccccc6n2c5c31)C(=O)NC4 | 452 nM | 24 nM | 122 nM | 107 nM | 401 nM | 69 nM | 27 nM | 109 nM | 759 nM | 41 nM | 50 nM | 10 nM | 329 nM | 15 nM | 228 nM | 332 nM | 6 nM | 395 nM | 230 nM | 138 nM | Kd [17]: 45 nM; Kd (Myosin-IIIb): 328 nM; Kd [18]: 34 nM
2 | CO[C@@H]1[C@H](N(C)CCOCCOCCOCCNC(=O)CCC2=[N+]3C(=Cc4c(C)cc(C)n4[B-]3(F)F)C=C2)C[C@H]2O[C@]1(C)n1c3ccccc3c3c4c(c5c6ccccc6n2c5c31)C(=O)NC4 | 572 nM | 19 nM | 109 nM | 108 nM | 308 nM | 59 nM | 30 nM | 194 nM | > 2000 nM | 15 nM | 41 nM | 11 nM | 213 nM | 9 nM | 158 nM | 372 nM | 3 nM | 408 nM | 148 nM | 102 nM | Kd [19]: 745 nM; Kd [17]: 46 nM; Kd (Myosin-IIIb): 294 nM; Kd [18]: 60 nM
